Assay results as given in patent publication US8173668B1 (Alcon Research, Ltd., priority 2007, dated 2012).

How the values were obtained:
[1] = test system: h-CM cells; experiment: MMP activity in h-CM cells after 24 hour exposure; format: cell-based, human; conditions: 1 μM
Experimental: As with FP-class prostanoids, the IOP-lowering effects of BK may involve the stimulation of production of various MMPs that in turn digest the extracellular matrix (ECM) to promote outflow and thus lower IOP (Mietz et al., Invest. Ophthalmol. Vis. Sci. 44: 5182-5188, 2003; Webb et al., J. Ocular Pharmacol. Ther. 22: 310-316, 2006). Cells isolated from human or animal ocular or non-ocular tissues, or cells expressing recombinant (preferably human) BK receptors are seeded in 48-wells culture plates and allowed to reach confluence. […] BK (100 nM) can be used a positive control compound. After this time the supernatant from each well is concentrated 20-fold (Centricon Concentrators; Millipore Corp., Bedford, Mass.). Equivalent volumes of media are then loaded onto 12% sodium dodicyl sulfate polyacrylamide gels, where the secreted proteins are separated according to their molecular weights by standard SDS-polyacrylamide gel electrophoresis protocols and transferred onto nitrocellulose paper. The level of MMP-1, MMP-2, MMP-3 and MMP-9 is then determined by immunoblot analysis with rabbit polyclonal anti-MMP antibodies. Bands are visualized by the addition of anti-rabbit horseradish peroxidase-conjugated secondary antibodies (New England Biolabs, Inc.; Beverly, Mass.) and enhanced chemiluminescent reagents (Pierce Biotechnology, Inc., Rockford, Ill.) (Mietz et al., Invest. Ophthalmol. Vis. Sci. 44: 5182-5188, 2003; Webb et al., J. Ocular Pharmacol. Ther. 22: 310-316, 2006). BK agonists should stimulate the production of some or all of MMP-1, MMP-2, MMP-3 and MMP-9. […] However, BK agonists with lower potencies than the above limits, whether partial or full agonists, can still be considered useful ocular hypotensive agents and may be useful as such.
Enhancement of such MMP synthesis and release by h-CM in response to FR-190997 may explain the efficacious IOP-lowering observed with this BK agonist in the glaucomatous monkey eyes (see below).

[2] = test system: h-CM cells; experiment: Prostaglandin production in h-CM cells; format: cell-based, human; conditions: 1-10 μM
Experimental: A functional assay to discover BK agonists may involve the measurement of prostaglandin E2 (PGE2) production (Wiernas et al. Brit. J. Pharmacol. 123: 1127-1137, 1998), for instance, in cells isolated from human or animal ocular or non-ocular tissues, or cells expressing recombinant (preferably human) BK receptors. Cells expressing BK receptors are seeded in 48-wells culture plates and allowed to reach confluence. After this time the cells are rinsed twice with 0.5 mL of phosphate buffered saline and incubated with the test agent made up in 0.5 mL Dulbeco's modified Eagle's medium (DMEM)/F-12 for 1 h at 37° C. […]
After this incubation, all tubes are placed in an ice-bath and 1 ml cold precipitating reagent supplied in the kit is added to the tubes, the content mixed and incubated for 25 min at 4° C. […] The supernatants of all tubes are decanted as specified in the kit instructions and the RIA samples analyzed on a gamma-counter. The levels of PGE2 generated by the test agent are then quantified in comparison with the PGE2-standard curve. Dose-response data for the test agent are constructed and the potency and intrinsic activity determined as described above for other assays. […]

[3] = test system: hypertensive eyes of cynomolgus monkeys; experiment: IOP in lasered (hypertensive) eyes of cynomolgus monkeys, single dose (FIG. 9); format: in vivo; conditions: IOP at 8, 25 and 27.5 hours
Experimental: Hours 5 and 8 were conscious IOPs. Hours 25 and 27.5 were made under sedation. […] Error bars indicate standard deviations.
Intraocular pressure (IOP) was determined with an Alcon Pneumatonometer (Alcon Laboratories, Inc., Fort Worth, Tex.) after light corneal anesthesia with 0.1% proparacaine. Right eyes were hypertensive as a result of laser trabeculoplasty. After a baseline IOP measurement, FR-190997 was instilled in the right eyes only of 12 cynomolgus monkeys. Vehicle was instilled in the right eyes of 5-6 additional animals. Subsequent IOP measurements were taken at 8, 25, and 27.5 hours. IOP measurements are also taken on left eyes (normotensive and untreated) at each of these time points. The percent change in IOP from baseline was determined for each animal for every IOP measurement (Sharif et al. J. Ocular Pharmacol. Ther. 17: 305-317, 2001; May et al., J Pharmacol Exp Ther. 306: 301-309, 2003; Sharif et al. Invest. Ophthalmol. Vis. Res. 47: 4001-4010, 2006). Group mean and standard error of the mean (SEM) were calculated for each time point.

CNC(=O)c1ccc(/C=C/C(=O)NCC(=O)N(C)c2ccc(Cl)c(COc3cccc4c(OCc5ccccn5)cc(C)nc34)c2Cl)cc1 [FR-190997]
MMP-1 activity [1]: 59 % above basal levels
MMP-2 activity [1]: not MMP-2 activity
MMP-3 activity [1]: 96 % above basal levels
production of prostaglandins [2]: 1.75 fold above basal
effect on IOP compared with vehicle [3]: lowered IOP compared with vehicle
